Assay results from patent US20050250748A1, “Combination therapy of angiotensin converting enzyme inhibitor and eplerenone for treatment of cardiovascular disease” (G. D. Searle & Co., priority 1999, published 2005).
Converted amounts (≈) assume the structure as drawn. Like-named read-outs stand apart in the source and are kept apart here.

How the values were obtained:
[1] = at lower temperatures (below the enantiotropic transition temperature)
hypertensive patients = conditions: despite continued ACE inhibition; cited from earlier work
[2] = system: patients with severe HF (NYHA Class IV); conditions: enalapril plus diuretics compared to placebo plus diuretics; cited from earlier work
[3] = solubility of eplerenone in crystallization solvents; type: physicochemical; conditions: organic solvent or mixture; room temperature; organic solvents used for crystallization
[4] = system: patients with stable NYHA Class II-IV heart failure; assay: Biological Evaluation I: randomized, double-blind, placebo and active drug-controlled 12-week trial of eplerenone with ACE inhibitor and loop diuretic; conditions: for urinary aldosterone excretion, increase from baseline: 12 week visit; for plasma renin activity (PRA): drug therapy with ACE inhibitor and loop diuretic; for testosterone levels: in males
[5] = system: patients alive at Day 3 with Killip class >I; conditions: patients randomized to lisinopril; ACE-I treatment stopped at 42 days, more than 50% continued long-term; cited from earlier work
[6] = system: patients with clinical evidence of HF at any time after an AMI; conditions: cited from earlier work; for risk reduction in all cause mortality compared to placebo: p=0.002
[7] = system: patients with impaired ejection fraction post AMI; conditions: cited from earlier work
[8] = system: patients with severe HF (NYHA Class III or IV); conditions: cited from earlier work
[9] = system: patients afflicted with congestive heart failure; conditions: coadministered with an ACE inhibitor; cited from earlier work
animal models = conditions: cited from earlier work
hypertensive-rat cohort = conditions: spironolactone subcutaneously; cited from earlier work
[10] = system: patients with LV dysfunction 2 to 6 days following MI; conditions: cited from earlier work
[11] = system: patients with myocardial infarction; conditions: patients with myocardial infarction receiving zofenopril; cited from earlier work

COC(=O)[C@@H]1CC2=CC(=O)CC[C@]2(C)[C@@]23O[C@@H]2C[C@@]2(C)[C@@H](CC[C@@]24CCC(=O)O4)[C@H]13 [Form L]
physical stability relative to Form H [1]: greater physical stability

C[C@H](CS)C(=O)N1CCC[C@H]1C(=O)O [captopril]
plasma aldosterone (hypertensive patients): gradual return of plasma aldosterone to baseline levels

CCOC(=O)[C@H](CCc1ccccc1)N[C@@H](C)C(=O)N1CCC[C@H]1C(=O)O [enalapril]
mortality at one year reduced [2]: 31%

COC(=O)[C@@H]1CC2=CC(=O)CC[C@]2(C)[C@@]23O[C@@H]2C[C@@]2(C)[C@@H](CC[C@@]24CCC(=O)O4)[C@H]13 [eplerenone, Pregn-4-ene-7,21-dicarboxylic acid, 9,11-epoxy-17-hydroxy-3-oxo-, γ-lactone, methyl ester, (7^α, 11^α, 17^α)-]
solubility [3]: 5 to 200 mg/mL (≈ 12.1 to 483 mM)
urinary aldosterone excretion, increase from baseline ([4]; 25 mg eplerenone QD, P>0.05): did not reach statistical significance
plasma renin activity (PRA) [4]: significantly elevated
reduction in BNP ([4]; eplerenone at 25 mg, all patients): highly significant
reduction in BNP ([4]; eplerenone at 100 mg, all patients): highly significant
urinary aldosterone excretion, increase from baseline ([4]; eplerenone dose of 50 mg): Greater increases
urinary aldosterone excretion, increase from baseline ([4]; eplerenone dose of 100 mg): Greater increases
testosterone levels [4]: lack of effect
reduction in BNP ([4]; patients with high baseline BNP levels): even greater

NCCCC[C@H](N[C@@H](CCc1ccccc1)C(=O)O)C(=O)N1CCC[C@H]1C(=O)O [lisinopril]
first-year mortality [5]: 22%

CCOC(=O)[C@H](CCc1ccccc1)N[C@@H](C)C(=O)N1[C@H](C(=O)O)C[C@@H]2CCC[C@@H]21 [ramipril]
first-year mortality rate in the active (ACE-I) arm ([6]; AIRE): 16%
risk reduction in all cause mortality compared to placebo ([6]; AIRE): 27%
reduction in the risk of developing severe resistant HF compared to placebo ([6]; AIRE, p=0.017): 23%
risk reduction in all cause mortality compared to placebo ([6]; AIREX long-term (three year) follow-up): 36%
ventricular dilatation and decline of systolic dysfunction [7]: prevented ventricular dilatation and further decline of systolic dysfunction

CC(=O)S[C@@H]1CC2=CC(=O)CC[C@]2(C)[C@H]2CC[C@@]3(C)[C@@H](CC[C@@]34CCC(=O)O4)[C@H]12 [spironolactone]
reduction in mortality compared to placebo ([8]; as restated in the sample size discussion): > 30%
risk reduction for all cause mortality ([8]; spironolactone 25 mg daily added to standard therapy (ACE-I and loop diuretic, with or without digoxin) vs standard therapy plus placebo, p<0.001): 30%
lower frequency of hospitalization for worsening HF than placebo patients ([8]; spironolactone 25 mg daily added to standard therapy): 35%
median increase in serum potassium concentration compared to placebo ([8]; spironolactone added to standard therapy): statistically but not clinically significant
patients in whom highly effective [9]: 13 of 16
ventricular dilatation and decline of systolic dysfunction [7]: prevented ventricular dilatation and further decline of systolic dysfunction
plasma renin activity (PRA) [4]: significantly elevated
testosterone levels [4]: significant increase
myocardial fibrosis (animal models): prevents myocardial fibrosis
myocardial fibrosis (animal models; listed as Spironolactone): prevent fibrosis in animal models irrespective of the development of left ventricular hypertrophy and the presence of hypertension
fibrosis (hypertensive-rat cohort): prevent fibrosis

CCOC(=O)[C@H](CCc1ccccc1)N[C@@H](C)C(=O)N1[C@H](C(=O)O)C[C@H]2CCCC[C@@H]21 [trandolapril]
first-year mortality rate in the active (ACE-I) arm ([10]; TRACE): 23%
relative reduction in the risk of death compared to placebo ([10]; p=0.001): 18%
reduction in the risk of progression to severe HF compared to placebo ([10]; p=0.003): 29%

C[C@H](CSC(=O)c1ccccc1)C(=O)N1C[C@@H](Sc2ccccc2)C[C@H]1C(=O)O [zofenopril]
plasma aldosterone [11]: A similar effect
